Source: patent US9115092B2, “Substituted quinazoline and pyrido-pyrimidine derivatives” (Asana Biosciences, LLC, priority 2010, dated 2015)

Key:
[1] = target: T1, mTOR kinase (Homo sapiens, UniProt P42345); assay: mTOR kinase TR-FRET assay; assay type: biochemical; details: read-out: mTO R
T1 construct: purchased Millipore, USA
In short: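 Compounds preincubated 60 min with mTOR (5 ng) in HEPES pH 7.5, EGTA, MnCl2; ULight-p70 S6K Thr389 peptide (50 nM) and ATP (20 μM) then added, 60 min at room temperature. EDTA-stopped, Eu-anti-phospho antibody detection by TR-FRET (665/615 nm); IC50 from variable-slope sigmoidal fit.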

[2] = system: PC3 cells; assay: XTT assay for cell viability, PC3 cells; assay type: cell-based, human; details: Homo sapiens, PC-3, cell viability
Experimental: Using a commercial kit from Sigma Aldrich (Catalog #X34251) and following its protocol, PC3 cells in the log phase of growth were employed and seeded at an optimal density of 1000 cell/well on to 96 well plates and incubated for 24 h followed by the addition of compounds of formula (I) in serial dilutions. Compound dilutions were made in DMSO. The cells were incubated with the compounds of formula (I) for 96 h and XTT tetrazolium dye (Sigma, USA) was subsequently added and incubated at 37° C. After the color formation, absorbance was measured at 465 nm in a Spectramax® Gemini spectrophotometer. EC50 values were calculated using a sigmoidal dose response curve fit in GraphPad Prism® v5 software. The tested compounds of formula (I) which caused inhibition of PC3 cell proliferation as determined by this assay protocol are shown in Table 2.

[3] = target: T2, PI3Kα (wild-type), P110/P85α (Homo sapiens, UniProt P42336); assay: PI3 Kinase TR-FRET assay, PI3Kα (wild-type); assay type: biochemical
T2 construct: made in house; host or cells: SF9 insect cells
In short: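 Sf9-expressed His-purified P110/P85α (5 ng) preincubated 60 min RT with compound and PIP2 in buffer with 40 mM MgCl2, 5 mM DTT; reaction started with ATP (PIP2 and ATP both 10 μM), 30 min RT. PIP3 detected by TR-FRET displacement, 665/615 nm ratio; IC50 from dose-response curves.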

T2 sequence (P42336 whole entry): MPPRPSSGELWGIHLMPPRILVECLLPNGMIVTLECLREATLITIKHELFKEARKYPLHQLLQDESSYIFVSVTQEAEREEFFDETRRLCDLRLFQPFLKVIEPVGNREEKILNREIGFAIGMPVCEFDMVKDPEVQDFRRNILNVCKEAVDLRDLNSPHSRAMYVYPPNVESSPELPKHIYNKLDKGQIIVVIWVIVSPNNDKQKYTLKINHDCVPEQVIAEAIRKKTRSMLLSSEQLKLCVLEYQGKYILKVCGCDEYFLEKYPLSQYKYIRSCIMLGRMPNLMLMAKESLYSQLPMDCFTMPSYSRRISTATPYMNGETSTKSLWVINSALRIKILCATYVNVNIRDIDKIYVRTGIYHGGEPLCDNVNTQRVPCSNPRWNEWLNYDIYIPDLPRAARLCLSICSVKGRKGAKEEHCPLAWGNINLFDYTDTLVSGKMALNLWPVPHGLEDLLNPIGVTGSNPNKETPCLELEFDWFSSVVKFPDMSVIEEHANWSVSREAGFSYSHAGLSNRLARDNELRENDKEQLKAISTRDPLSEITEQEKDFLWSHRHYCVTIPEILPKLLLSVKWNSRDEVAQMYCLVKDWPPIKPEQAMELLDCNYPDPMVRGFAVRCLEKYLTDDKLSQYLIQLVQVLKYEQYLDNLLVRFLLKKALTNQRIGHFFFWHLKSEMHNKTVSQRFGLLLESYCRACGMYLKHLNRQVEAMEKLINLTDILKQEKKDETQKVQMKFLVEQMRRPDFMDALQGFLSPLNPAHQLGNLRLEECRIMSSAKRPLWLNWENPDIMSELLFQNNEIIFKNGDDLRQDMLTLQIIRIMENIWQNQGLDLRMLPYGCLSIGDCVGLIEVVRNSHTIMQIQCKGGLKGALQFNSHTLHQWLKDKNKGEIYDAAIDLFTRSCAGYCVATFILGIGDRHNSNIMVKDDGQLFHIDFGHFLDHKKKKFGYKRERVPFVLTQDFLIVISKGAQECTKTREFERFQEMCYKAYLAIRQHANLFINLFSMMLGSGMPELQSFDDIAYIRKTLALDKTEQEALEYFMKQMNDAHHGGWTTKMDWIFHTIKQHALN
T2 sequence (P27986 whole entry partner): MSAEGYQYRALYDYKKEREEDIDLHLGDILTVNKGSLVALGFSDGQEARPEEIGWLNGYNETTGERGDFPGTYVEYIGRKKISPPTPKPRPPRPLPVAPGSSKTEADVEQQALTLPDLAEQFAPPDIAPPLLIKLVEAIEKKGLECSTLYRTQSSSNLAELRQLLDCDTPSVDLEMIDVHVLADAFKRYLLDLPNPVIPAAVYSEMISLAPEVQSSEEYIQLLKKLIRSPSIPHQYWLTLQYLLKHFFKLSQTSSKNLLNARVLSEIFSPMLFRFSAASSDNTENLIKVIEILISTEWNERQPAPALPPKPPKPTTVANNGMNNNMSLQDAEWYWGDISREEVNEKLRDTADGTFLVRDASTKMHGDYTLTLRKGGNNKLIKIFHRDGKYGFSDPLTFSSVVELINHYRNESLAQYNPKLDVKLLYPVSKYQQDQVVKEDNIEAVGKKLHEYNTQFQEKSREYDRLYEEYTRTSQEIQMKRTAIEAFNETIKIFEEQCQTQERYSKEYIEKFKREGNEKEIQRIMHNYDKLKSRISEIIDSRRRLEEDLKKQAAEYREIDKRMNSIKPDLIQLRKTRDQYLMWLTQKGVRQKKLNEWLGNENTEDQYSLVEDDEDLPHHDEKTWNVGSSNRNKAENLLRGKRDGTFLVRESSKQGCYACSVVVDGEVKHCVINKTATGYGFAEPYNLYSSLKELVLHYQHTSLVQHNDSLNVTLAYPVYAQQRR

Cc1ccc(-c2ccc3c(N4CCOCC4)nc(-c4ccc(NC(=O)Nc5ccc(C(=O)N6CCC(N(C)C)C6)cc5)cc4)nc3c2)o1 (stereo in doubt) [Example 195, (S)-1-(4-(3-(dimethylamino)pyrrolidine-1-carbonyl)phenyl)-3-(4-(7-(5-methylfuran-2-yl)-4-morpholino-quinazolin-2-yl)phenyl)urea]
IC50 [1]: < 0.05 µM | IC50 [2]: < 0.1 µM | IC50 [3]: 0.05 to 0.2 µM

NC1CCN(C(=O)c2ccc(NC(=O)Nc3ccc(-c4nc(N5CCOCC5)c5ccc(-c6ccco6)cc5n4)cc3)cc2)C1 (stereo in doubt) [Example 234, (S)-1-(4-(3-aminopyrrolidine-1-carbonyl)phenyl)-3-(4-(7-(furan-2-yl)-4-morpholino-quinazolin-2-yl)phenyl)urea]
IC50 [1]: < 0.05 µM | IC50 [2]: 0.201 to 10 µM | IC50 [3]: < 0.05 µM

CN1CCN(C(=O)c2ccc(NC(=O)Nc3ccc(-c4nc(N5CCOCC5)c5cc(F)c(-c6cccnc6)cc5n4)cc3)cc2)CC1 [Example 4, 1-[4(6-Fluoro-4-morpholin-4-yl-7-pyridin-3-yl-quinazolin-2-yl)-phenyl]-3-[4-(4-methyl-piperazine-1-carbonyl)-phenyl]-urea]
IC50 [1]: < 0.05 µM | IC50 [2]: < 0.1 µM | IC50 [3]: < 0.05 µM

CN(C)C(=O)c1ccc(NC(=O)Nc2ccc(-c3nc(N4CCOCC4)c4cccc(-c5cccc(O)c5)c4n3)cc2)cc1 [Example 5, 4-(3-{4-[8-(3-Hydroxy-phenyl)-4-morpholin-4-yl-quinazolin-2-yl]-phenyl}-ureido)-N,N-dimethyl-benzamide]
IC50 [1]: < 0.05 µM | IC50 [2]: < 0.1 µM | IC50 [3]: 0.05 to 0.2 µM

CN(C)C(=O)c1ccc(NC(=O)Nc2ccc(-c3nc(N4CCOCC4)c4cccc(-c5ccc(F)nc5)c4n3)cc2)cc1 [Example 6, 4-(3-{4-[8-(6-Fluoro-pyridin-3-yl)-4-morpholin-4-yl-quinazolin-2-yl]-phenyl}-ureido)-N,N-dimethyl-benzamide]
IC50 [1]: < 0.05 µM | IC50 [2]: 0.1 to 0.5 µM | IC50 [3]: 0.05 to 0.2 µM

CN(C)C(=O)c1ccc(NC(=O)Nc2ccc(-c3nc(N4CCOCC4)c4ncc(-c5cncnc5)cc4n3)cc2)cc1 [Example 9, N,N-Dimethyl-4-{3-[4-(4-morpholin-4-yl-7-pyrimidin-5-yl-pyrido[3,2-d]-pyrimidin-2-yl)-phenyl]-ureido}-benzamide]
IC50 [1]: < 0.05 µM | IC50 [2]: < 0.1 µM | IC50 [3]: < 0.05 µM

CC(=O)Nc1ccc(NC(=O)Nc2ccc(-c3nc(N4CCOCC4)c4ccc(-c5ccc(C)o5)cc4n3)cc2)cc1 [Example 17, N-(4-(3-(4-(7-(5-methylfuran-2-yl)-4-morpholino-quinazolin-2-yl)phenyl)ureido)phenyl)acetamide]
IC50 [1]: 0.05 to 0.2 µM | IC50 [2]: 0.1 to 0.5 µM | IC50 [3]: 0.05 to 0.2 µM

CN(C)C(=O)c1ccc(NC(=O)Nc2ccc(-c3nc(N4CCOCC4)c4ccc(-c5cccnc5F)cc4n3)cc2)cc1 [Example 21, 4-(3-{4-[7-(2-fluoro-pyridin-3-yl)-4-morpholin-4-yl-quinazolin-2-yl]-phenyl}-ureido)-N,N-dimethyl-benzamide]
IC50 [1]: < 0.05 µM | IC50 [2]: 0.1 to 0.5 µM | IC50 [3]: 0.05 to 0.2 µM

CN(C)C(=O)c1ccc(NC(=O)Nc2ccc(-c3nc(N4CCOCC4)c4ccc(-c5cccc(NS(C)(=O)=O)c5)cc4n3)cc2)cc1 [Example 23, 4-(3-{4-[7-(3-methanesulfonylamino-phenyl)-4-morpholin-4-yl-quinazolin-2-yl]-phenyl}-ureido)-N,N-dimethyl-benzamide]
IC50 [1]: 0.05 to 0.2 µM | IC50 [2]: 0.501 to 5 µM | IC50 [3]: < 0.05 µM

CS(=O)(=O)c1cccc(-c2ccc3c(N4CCOCC4)nc(-c4ccc(NC(=O)Nc5ccc(C(N)=O)cc5)cc4)nc3c2)c1 [Example 25, 4-(3-{4-[7-(3-methanesulfonyl-phenyl)-4-morpholin-4-yl-quinazolin-2-yl]-phenyl}-ureido)-benzamide]
IC50 [1]: 0.05 to 0.2 µM | IC50 [2]: 0.501 to 5 µM | IC50 [3]: 0.05 to 0.2 µM

CN1CCN(C(=O)c2ccc(NC(=O)Nc3ccc(-c4nc(N5CCOCC5)c5ccc(-c6cccnc6F)cc5n4)cc3)cc2)CC1 [Example 26, 1-{4-[7-(2-fluoro-pyridin-3-yl)-4-morpholin-4-yl-quinazolin-2-yl]-phenyl}-3-[4-(4-methyl-piperazine-1-carbonyl)-phenyl]-urea]
IC50 [1]: < 0.05 µM | IC50 [2]: < 0.1 µM | IC50 [3]: < 0.05 µM

CN1CCN(C(=O)c2ccc(NC(=O)Nc3ccc(-c4nc(N5CCOCC5)c5ccc(-c6cnn(C)c6)cc5n4)cc3)cc2)CC1 [Example 27, 1-[4-(4-methyl-piperazine-1-carbonyl)-phenyl]-3-{4-[7-(1-methyl-1H-pyrazol-4-yl)-4-morpholin-4-yl-quinazolin-2-yl]-phenyl}-urea]
IC50 [1]: < 0.05 µM | IC50 [2]: < 0.1 µM | IC50 [3]: 0.05 to 0.2 µM

CN(C)C(=O)c1ccc(NC(=O)Nc2ccc(-c3nc(N4CCOCC4)c4ccc(-c5cccnc5F)cc4n3)cc2)cn1 [Example 28, 5-(3-{4-[7-(2-fluoro-pyridin-3-yl)-4-morpholin-4-yl-quinazolin-2-yl]-phenyl}-ureido)-pyridine-2-carboxylic acid dimethylamide]
IC50 [1]: < 0.05 µM | IC50 [2]: < 0.1 µM | IC50 [3]: 0.05 to 0.2 µM

CN(C)C(=O)c1ccc(NC(=O)Nc2ccc(-c3nc(N4CCOCC4)c4cc(F)c(-c5cccnc5)cc4n3)cc2)cc1 [Example 29, 4-{3-[4-(6-fluoro-4-morpholin-4-yl-7-pyridin-3-yl-quinazolin-2-yl)-phenyl]-ureido}-N,N-dimethyl-benzamide]
IC50 [1]: < 0.05 µM | IC50 [2]: < 0.1 µM | IC50 [3]: < 0.05 µM

CN(C)C(=O)c1ccc(NC(=O)Nc2ccc(-c3nc(N4CCOCC4)c4cc(F)c(-c5cncnc5)cc4n3)cc2)cc1 [Example 30, 4-{3-[4-(6-fluoro-4-morpholin-4-yl-7-pyrimidin-5-yl-quinazolin-2-yl)-phenyl]-ureido}-N,N-dimethyl-benzamide]
IC50 [1]: < 0.05 µM | IC50 [2]: < 0.1 µM | IC50 [3]: < 0.05 µM

CN(C)C(=O)c1ccc(NC(=O)Nc2ccc(-c3nc(N4CCOCC4)c4ccc(-c5cccc(S(C)(=O)=O)c5)cc4n3)cc2)cn1 [Example 31, 5-(3-{4-[7-(3-methanesulfonyl-phenyl)-4-morpholin-4-yl-quinazolin-2-yl]-phenyl}-ureido)-pyridine-2-carboxylic acid dimethylamide]
IC50 [1]: < 0.05 µM | IC50 [2]: 0.1 to 0.5 µM | IC50 [3]: 0.05 to 0.2 µM

CN(C)C(=O)c1ccc(NC(=O)Nc2ccc(-c3nc(N4CCOCC4)c4ccc(C(C)(C)O)cc4n3)cc2F)cc1 [Example 290, 4-(3-(2-fluoro-4-(7-(2-hydroxypropan-2-yl)-4-morpholino-quinazolin-2-yl)phenyl)ureido)-N,N-dimethyl-benzamide]
IC50 [1]: < 0.05 µM | IC50 [3]: 0.05 to 0.2 µM

CC(=O)Nc1ccc(NC(=O)Nc2ccc(-c3nc(N4CCOCC4)c4ncc(-c5cccnc5F)cc4n3)cc2)cc1 [Example 293, N-(4-(3-(4-(7-(2-fluoropyridin-3-yl)-4-morpholinopyrido[3,2-d]pyrimidin-2-yl)phenyl)ureido)phenyl) acetamide]
IC50 [1]: < 0.05 µM | IC50 [3]: < 0.05 µM

CC(=O)Nc1ccc(NC(=O)Nc2ccc(-c3nc(N4CCOCC4)c4ncc(-c5cnn(C)c5)cc4n3)cc2)cc1 [Example 294, N-(4-(3-(4-(7-(1-methyl-1H-pyrazol-4-yl)-4-morpholinopyrido[3,2-d]pyrimidin-2-yl)phenyl)ureido)phenyl) acetamide]
IC50 [1]: < 0.05 µM | IC50 [3]: < 0.05 µM
